pIC50: −log10 of the molar value.
Tests used:
HDAC6 human recombinant = biological target: T1, HDAC6 human recombinant (Homo sapiens, UniProt Q9UBN7); assay: HDAC enzyme activity inhibition (in vitro), HDAC6 assay; format: biochemical; details: samples at 0.1, 1, 10, 100 and 1000 nM; 37° C. 60 minutes; fluorescence Ex 390, Em 460; read-out: HDAC6 IC50
T1 construct: purchased Calbiochem 382180
T1 sequence (Q9UBN7 1-1215): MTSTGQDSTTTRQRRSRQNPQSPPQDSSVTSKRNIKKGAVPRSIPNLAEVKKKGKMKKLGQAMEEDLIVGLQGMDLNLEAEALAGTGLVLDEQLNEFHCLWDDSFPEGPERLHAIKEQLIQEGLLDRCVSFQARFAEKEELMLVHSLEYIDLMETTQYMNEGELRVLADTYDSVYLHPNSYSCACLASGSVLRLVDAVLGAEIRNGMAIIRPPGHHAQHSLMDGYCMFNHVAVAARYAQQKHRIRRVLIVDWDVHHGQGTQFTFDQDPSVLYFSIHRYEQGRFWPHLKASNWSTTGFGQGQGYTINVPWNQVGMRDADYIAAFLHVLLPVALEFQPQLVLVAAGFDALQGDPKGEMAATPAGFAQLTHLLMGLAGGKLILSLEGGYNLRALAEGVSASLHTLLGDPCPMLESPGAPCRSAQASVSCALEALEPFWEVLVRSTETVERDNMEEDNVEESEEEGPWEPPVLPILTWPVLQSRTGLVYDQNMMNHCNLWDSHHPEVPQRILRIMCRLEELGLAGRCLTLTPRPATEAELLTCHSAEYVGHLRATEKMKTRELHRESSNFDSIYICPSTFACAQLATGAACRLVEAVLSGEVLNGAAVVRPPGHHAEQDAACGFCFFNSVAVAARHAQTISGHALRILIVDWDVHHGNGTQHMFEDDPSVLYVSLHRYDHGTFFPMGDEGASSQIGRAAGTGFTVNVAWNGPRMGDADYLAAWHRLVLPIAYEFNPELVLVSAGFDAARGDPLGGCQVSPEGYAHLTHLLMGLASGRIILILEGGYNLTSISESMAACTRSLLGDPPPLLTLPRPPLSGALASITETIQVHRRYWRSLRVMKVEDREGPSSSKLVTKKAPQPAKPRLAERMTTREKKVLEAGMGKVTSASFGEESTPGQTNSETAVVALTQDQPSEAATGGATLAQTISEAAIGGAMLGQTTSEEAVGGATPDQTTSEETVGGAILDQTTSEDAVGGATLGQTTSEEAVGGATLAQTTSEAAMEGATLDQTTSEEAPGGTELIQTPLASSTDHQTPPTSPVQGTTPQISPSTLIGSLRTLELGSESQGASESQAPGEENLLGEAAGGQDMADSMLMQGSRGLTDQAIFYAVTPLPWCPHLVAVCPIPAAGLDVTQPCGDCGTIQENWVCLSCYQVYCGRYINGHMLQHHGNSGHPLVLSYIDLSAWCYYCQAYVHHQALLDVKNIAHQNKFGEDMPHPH
Protocol: A HDAC enzyme inhibitory capacity of a test material was measured by using HDAC1 Fluorimetric Drug Discovery Assay Kit (Enzolifesciences: BML-AK511) and HDAC6 human recombinant (Calbiochem: 382180). For a HDAC1 assay, samples were treated at a concentration of 100, 1000 and 10000 nM. […] After the above sample treatment, a reaction was continued at 37° C. for 60 minutes, then treated with a developer, and then subjected to a reaction at 37° C. for 30 minutes, after which fluorescence intensity (Ex 390, Em 460) was measured by using FlexStatin3 (Molecular device).

HDAC1 = biological target: T2, HDAC1 (Homo sapiens, UniProt Q13547); assay: HDAC enzyme activity inhibition (in vitro), HDAC1 Fluorimetric Drug Discovery Assay Kit; format: biochemical; details: samples at 100, 1000 and 10000 nM; 37° C. 60 minutes; fluorescence Ex 390, Em 460; read-out: HDAC1 IC50
T2 construct: purchased Enzolifesciences BML-AK511
Protocol: <Experimental Example 1> Identification of HDAC Enzyme Activity Inhibition (In Vitro)
A selective HDAC6 inhibitor is important for selectivity of HDAC1 inhibition, which is a cause of side effects, and thus HDAC1/6 enzyme selectivity and cell selectivity (HDAC1: histone acetylation/HDAC6: tubulin acetylation) were identified.
A HDAC enzyme inhibitory capacity of a test material was measured by using HDAC1 Fluorimetric Drug Discovery Assay Kit (Enzolifesciences: BML-AK511) and HDAC6 human recombinant (Calbiochem: 382180). For a HDAC1 assay, samples were treated at a concentration of 100, 1000 and 10000 nM. For a HDAC6 assay, samples were treated at a concentration of 0.1, 1, 10, 100 and 1000 nM. After the above sample treatment, a reaction was continued at 37° C. for 60 minutes, then treated with a developer, and then subjected to a reaction at 37° C. for 30 minutes, after which fluorescence intensity (Ex 390, Em 460) was measured by using FlexStatin3 (Molecular device).

T2 sequence (Q13547 whole entry): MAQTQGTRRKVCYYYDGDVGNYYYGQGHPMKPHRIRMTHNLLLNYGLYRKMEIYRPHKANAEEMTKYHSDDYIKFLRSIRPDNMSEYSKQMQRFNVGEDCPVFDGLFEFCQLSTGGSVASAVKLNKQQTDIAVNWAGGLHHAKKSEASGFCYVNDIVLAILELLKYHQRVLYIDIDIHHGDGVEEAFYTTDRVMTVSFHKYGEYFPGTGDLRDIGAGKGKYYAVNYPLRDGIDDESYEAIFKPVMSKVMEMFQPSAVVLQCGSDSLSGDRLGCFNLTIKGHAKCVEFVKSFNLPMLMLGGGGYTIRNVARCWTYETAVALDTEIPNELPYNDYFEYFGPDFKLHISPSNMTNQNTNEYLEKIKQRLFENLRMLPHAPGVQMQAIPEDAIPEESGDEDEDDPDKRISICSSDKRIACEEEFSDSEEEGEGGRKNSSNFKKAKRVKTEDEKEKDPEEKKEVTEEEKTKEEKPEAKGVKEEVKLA

| SMILES | pIC50 (HDAC6 human recombinant) | pIC50 (HDAC1) |
| --- | --- | --- |
| O=c1n(Cc2ccc(-c3nnc(C(F)F)o3)cc2F)c2ccccc2n1C1CCS(=O)(=O)CC1 [Compound 35, 1-(4-(5-(difluoromethyl)-1,3,4-oxadiazole-2-yl)-2-fluorobenzyl)-3-(1,1-dioxydotetrahydro-2H-thiopyran-4-yl)-1,3-dihydro-2H-benzo[d]imidazole-2-one] | 6.69 | < 5.00 |
| CN(C)CCn1c(=O)n(Cc2ccc(-c3nnc(C(F)F)o3)cc2F)c2ccccc21 [Compound 36, 1-(4-(5-(difluoromethyl)-1,3,4-oxadiazole-2-yl)-2-fluorobenzyl)-3-(2-(dimethylamino)ethyl)-1,3-dihydro-2H-benzo[d]imidazole-2-one] | 6.88 | < 5.00 |
| O=c1n(Cc2ccc(-c3nnc(C(F)F)o3)cc2F)c2ccccc2n1C1COC1 [Compound 37, 1-(4-(5-(difluoromethyl)-1,3,4-oxadiazole-2-yl)-2-fluorobenzyl)-3-(oxetan-3-yl)-1,3-dihydro-2H-benzo[d]imidazole-2-one] | 6.80 | < 5.00 |
| O=c1n(Cc2ccc(-c3nnc(C(F)F)o3)cc2F)c2ccccc2n1CC1CCN(C2COC2)CC1 [Compound 39, 1-(4-(5-(difluoromethyl)-1,3,4-oxadiazole-2-yl)-2-fluorobenzyl)-3-((1-(oxetan-3-yl)piperidine-4-yl)methyl)-1,3-dihydro-2H-benzo[d]imidazole-2-one] | 6.78 | < 5.00 |
| O=c1n(Cc2ccc(-c3nnc(C(F)F)o3)cn2)c2ccc(F)cc2n1C1CCN(C2CCOCC2)CC1 [Compound 44, 1-((5-(5-(difluoromethyl)-1,3,4-oxadiazole-2-yl)pyridine-2-yl)methyl)-5-fluoro-3-(1-(tetrahydro-2H-pyran-4-yl)piperidine-4-yl)-1,3-dihydro-2H-benzo[d]imidazole-2-one] | 7.12 | < 5.00 |
| O=c1n(Cc2ccc(-c3nnc(C(F)F)o3)cn2)c2ccc(F)cc2n1C1CCN(C2CCCCC2)CC1 [Compound 47, 3-(1-cyclohexylpiperidine-4-yl)-1-((5-(5-(difluoromethyl)-1,3,4-oxadiazole-2-yl)pyridine-2-yl)methyl)-5-fluoro-1,3-dihydro-2H-benzo[d]imidazole-2-one] | 6.90 | < 5.00 |
| O=c1n(Cc2ccc(-c3nnc(C(F)F)o3)cn2)c2cc(F)ccc2n1C1CCN(C2CC3(COC3)C2)CC1 [Compound 49, 1-(1-(2-oxaspiro[3.3]heptane-6-yl)piperidine-4-yl)-3-((5-(5-(difluoromethyl)-1,3,4-oxadiazole-2-yl)pyridine-2-yl)methyl)-5-fluoro-1,3-dihydro-2H-benzo[d]imidazole-2-one] | 7.46 | < 5.00 |
| O=c1n(Cc2ccc(-c3nnc(C(F)F)o3)cn2)c2cc(F)ccc2n1C1CCN(C2CCCCC2)CC1 [Compound 54, 1-(1-cyclohexylpiperidine-4-yl)-3-((5-(5-(difluoromethyl)-1,3,4-oxadiazole-2-yl)pyridine-2-yl)methyl)-5-fluoro-1,3-dihydro-2H-benzo[d]imidazole-2-one] | 7.41 | < 5.00 |

The next lines start with the values.

| pIC50 (HDAC6 human recombinant) | pIC50 (HDAC1) | SMILES |
| --- | --- | --- |
| 6.81 | < 5.00 | CCN1CCC(n2c(=O)n(Cc3ccc(-c4nnc(C(F)F)o4)cn3)c3ccc(F)cc32)CC1 [Compound 40, 1-((5-(5-(difluoromethyl)-1,3,4-oxadiazole-2-yl)pyridine-2-yl)methyl)-3-(1-ethylpiperidine-4-yl)-5-fluoro-1,3-dihydro-2H-benzo[d]imidazole-2-one] |
| 7.04 | < 5.00 | O=c1n(Cc2ccc(-c3nnc(C(F)F)o3)cn2)c2ccc(F)cc2n1C1CCN(C2COC2)CC1 [Compound 41, 1-((5-(5-(difluoromethyl)-1,3,4-oxadiazole-2-yl)pyridine-2-yl)methyl)-5-fluoro-3-(1-(oxetan-3-yl)piperidine-4-yl)-1,3-dihydro-2H-benzo[d]imidazole-2-one] |
| 6.97 | < 5.00 | CC(=O)N1CCC(n2c(=O)n(Cc3ccc(-c4nnc(C(F)F)o4)cn3)c3ccc(F)cc32)CC1 [Compound 42, 3-(1-acetylpiperidine-4-yl)-1-((5-(5-(difluoromethyl)-1,3,4-oxadiazole-2-yl)pyridine-2-yl)methyl)-5-fluoro-1,3-dihydro-2H-benzo[d]imidazole-2-one] |
| 6.92 | < 5.00 | CN1CCC(n2c(=O)n(Cc3ccc(-c4nnc(C(F)F)o4)cn3)c3ccc(F)cc32)CC1 [Compound 43, 1-((5-(5-(difluoromethyl)-1,3,4-oxadiazole-2-yl)pyridine-2-yl)methyl)-5-fluoro-3-(1-methylpiperidine-4-yl)-1,3-dihydro-2H-benzo[d]imidazole-2-one] |
| 6.92 | < 5.00 | O=c1n(Cc2ccc(-c3nnc(C(F)F)o3)cn2)c2ccc(F)cc2n1C1CCN(C2CCC2)CC1 [Compound 45, 3-(1-cyclobutylpiperidine-4-yl)-1-((5-(5-(difluoromethyl)-1,3,4-oxadiazole-2-yl)pyridine-2-yl)methyl)-5-fluoro-1,3-dihydro-2H-benzo[d]imidazole-2-one] |
| 6.99 | < 5.00 | CC(C)N1CCC(n2c(=O)n(Cc3ccc(-c4nnc(C(F)F)o4)cn3)c3ccc(F)cc32)CC1 [Compound 46, 1-((5-(5-(difluoromethyl)-1,3,4-oxadiazole-2-yl)pyridine-2-yl)methyl)-5-fluoro-3-(1-isopropylpiperidine-4-yl)-1,3-dihydro-2H-benzo[d]imidazole-2-one] |
| 7.66 | < 5.00 | CN1CCC(n2c(=O)n(Cc3ccc(-c4nnc(C(F)F)o4)cn3)c3cc(F)ccc32)CC1 [Compound 48, 3-((5-(5-(difluoromethyl)-1,3,4-oxadiazole-2-yl)pyridine-2-yl)methyl)-5-fluoro-1-(1-methylpiperidine-4-yl)-1,3-dihydro-2H-benzo[d]imidazole-2-one] |
| 7.41 | < 5.00 | CCN1CCC(n2c(=O)n(Cc3ccc(-c4nnc(C(F)F)o4)cn3)c3cc(F)ccc32)CC1 [Compound 50, 3-((5-(5-(difluoromethyl)-1,3,4-oxadiazole-2-yl)pyridine-2-yl)methyl)-1-(1-ethylpiperidine-4-yl)-5-fluoro-1,3-dihydro-2H-benzo[d]imidazole-2-one] |
| 7.49 | < 5.00 | CC(C)N1CCC(n2c(=O)n(Cc3ccc(-c4nnc(C(F)F)o4)cn3)c3cc(F)ccc32)CC1 [Compound 51, 3-((5-(5-(difluoromethyl)-1,3,4-oxadiazole-2-yl)pyridine-2-yl)methyl)-5-fluoro-1-(1-isopropylpiperidine-4-yl)-1,3-dihydro-2H-benzo[d]imidazole-2-one] |
| 7.43 | < 5.00 | O=c1n(Cc2ccc(-c3nnc(C(F)F)o3)cn2)c2cc(F)ccc2n1C1CCN(C2COC2)CC1 [Compound 53, 3-((5-(5-(difluoromethyl)-1,3,4-oxadiazole-2-yl)pyridine-2-yl)methyl)-5-fluoro-1-(1-(oxetan-3-yl)piperidine-4-yl)-1,3-dihydro-2H-benzo[d]imidazole-2-one] |

— patent US20230092890A1, “1, 3, 4-Oxadiazole derivative compounds as histone deacetylase 6 inhibitor, and the pharmaceutical composition comprising the same” (Chong Kun Dang Pharmaceutical Corp., priority 2019, published 2023)
